Laboratory results from patent publication US12509451B2, “Heteroaryl amide inhibitors of CD38” (NAPA THERAPEUTICS LTD., priority 2020, dated 2025).

Legend:
[1] = molecular target: T1, CD38 (Mus musculus, UniProt P56528); experiment: In vivo efficacy against CD38 in obese mice, chronic oral administration 49 days, liver NAD+ metabolites; conditions: 10 mg/kg BID oral, 4 hr post-dosing
T1 construct: aged mice (male C57BL6/J, 22 months old) were fasted for 4 hr; from tissue; host or cells: C57BL6/J mice (aged, DIO obese or LPS-challenged); liver, spleen, plasma
T1 sequence (P56528 1-304): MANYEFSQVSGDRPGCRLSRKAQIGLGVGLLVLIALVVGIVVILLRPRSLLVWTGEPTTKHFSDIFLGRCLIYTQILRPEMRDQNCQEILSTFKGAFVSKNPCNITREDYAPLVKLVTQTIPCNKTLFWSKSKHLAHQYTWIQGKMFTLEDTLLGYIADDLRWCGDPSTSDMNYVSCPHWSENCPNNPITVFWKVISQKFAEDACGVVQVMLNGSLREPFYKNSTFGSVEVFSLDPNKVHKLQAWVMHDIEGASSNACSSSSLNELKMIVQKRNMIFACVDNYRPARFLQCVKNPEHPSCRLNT
Description: (§1) The in vivo efficacy of Compound 32 against the human CD38 enzyme was tested in obese mice after oral administration and determined by mass spec (MS) analysis of NAD+ metabolites levels in liver tissue. The two main CD38 substrates, NAD+ and NMN, and the 2 main byproducts of the CD38 enzymatic reaction, NAM and ADPR, were measured.
(§2) Obese mice (male DIO C57BL6/J, 65 weeks old) treated for 49 days with compound 32 via oral gavage at a concentration of 10 mg/kg BID. On day 49, mice were humanely euthanized for liver tissue harvesting at 4 hr post-dosing. A vehicle control (1% Methylcellulose) was included to assess baseline NAD+ metabolites levels.
(§3) The procedure for tissue sample preparation and UPLC-MS/MS methods were adapted from Trammell et al. (2013) Compu. Struct. Biotechnol. J. […] (https://www.ncbi.nlm.nih.gov/pmc/articles/PMC3962138/). Frozen liver tissue was pulverized and resuspended in the extraction buffer (3:1 ethanol:10 mM aq. HEPES, pH 7.1). The samples were vortexed, sonicated briefly in a bath sonicator, and shaken at 55° C. for 3 min at 1,200 rpm. Samples were then centrifuged at 16,000×g for 10 min at 4° C., and the supernatant was dried by speedvac. The dried pellet was resuspended in 97% 10 mM ammonium acetate/3% acetonitrile, centrifuged at 16,000×g for 10 min at 4° C. and 2 μL was injected for LCMS analysis.
(§4) The UPLC-MS/MS analysis to measure NAD+ metabolites was performed using a Vanquish UHPLC system and a Q Exactive Orbitrap mass spectrometer with H-ESI ion source both from Thermo Scientific. UPLC separation was performed on a Hypercarb (2.1×100 mm, 5 μm particle size, Thermo) column following the method described in Trammell et al. (2013). Acquisition was carried out in positive ion, Parallel Reaction Monitoring (PRM) mode and targeted […] (t-SIM). The Thermo Xcalibur QualBrowser system (version 4.2.47) and Freestyle (version 1.8.51.0) softwares was used for the data processing. For relative fold change, peak areas were normalized with respective internal standards, normalized to weight of the tissue sample used, and calculated as fold change relative at 0 h timepoint/vehicle group.
as §1, with “39” for “32”, “spec” for “spec (MS)”
as §2, with “39” for “32”

[2] = molecular target: T1, CD38; experiment: In vivo efficacy against CD38 in aged mice, BID for 5 days, liver NAD+ metabolites; conditions: 3 hr post-dosing
Description: as §1, with “aged” for “obese”
(§5) Compound 32 was administered to aged mice (male DIO C57BL6/J, 19-22 months old) via oral gavage at a concentration of 3 mg/kg and 10 mg/kg BID for 5 days. At day 5, mice were humanely euthanized for liver tissue harvesting 3 hr post-dosing. A vehicle control (DMSO: Solutol HS 15: 80% Captisol (20% in water)(5:15:80 v/v)) was included to assess baseline NAD+ metabolites levels.
as §3, §4
as §1, with “39” for “32”, “aged” for “obese”, “spec” for “spec (MS)”
as §5, with “39” for “32”, “of” for “of 3 mg/kg and”

[3] = molecular target: T1, CD38; experiment: In vivo efficacy against CD38 in obese mice, acute oral administration, liver NAD+ metabolites
[4] = single 10 mg/kg oral dose, 1 hour post administration
[5] = single 1 mg/kg and 10 mg/kg oral dose

## O=C(Nc1ccnc(C(F)(F)F)c1)c1cc(OC2CC2)cc(-n2ccnc2)n1 [Compound 32, 4-cyclopropoxy-6-(1H-imidazol-1-yl)-N-(2-(trifluoromethyl)pyridin-4-yl)picolinamide]
[1]
  ADPR levels in liver: significantly decrease
  NAM levels in liver: significantly decrease
[2]; 3 mg/kg and 10 mg/kg BID oral
  ADPR levels in liver: decrease
  NAD+ levels in liver: significantly increase
  NAM levels in liver: decrease
  NMN levels in liver: significantly increase
[3]; single 3 mg/kg oral dose
  ADPR levels in liver: decrease
  NAD+ levels in liver: increase
  NAM levels in liver: decrease
  NMN levels in liver: increase
[3]; [4]
  ADPR levels in liver: decrease
  NAD+ levels in liver: remarkably increase
  NAM levels in liver: decrease
  NMN levels in liver: remarkably increase

## COCCOc1cc(C(=O)Nc2ccnc(C(F)(F)F)c2)nc(-n2ccnc2)n1 [Compound 39, 2-(1H-imidazol-1-yl)-6-(2-methoxyethoxy)-N-(2-(trifluoromethyl)pyridin-4-yl)pyrimidine-4-carboxamide]
[1]
  ADPR levels in liver: decrease
  NAD+ levels in liver: significantly increase
  NAM levels in liver: decrease
  NMN levels in liver: significantly increase
[2]; 10 mg/kg BID oral
  ADPR levels in liver: decrease
  NAD+ levels in liver: increase
  NAM levels in liver: decrease
[3]; [5]
  ADPR levels in liver: decrease
  NAD+ levels in liver: increase
  NAM levels in liver: decrease
  NMN levels in liver: increase
